Assays:
Assay type in all cases: cell-based
[1] = target: recombinant rat GluN1/GluN2A receptors (NR2A) (Rattus norvegicus (Rat), UniProt P35439+Q00959); experiment: Two-electrode voltage-clamp recordings, Xenopus laevis oocytes, NR2A; conditions: current in the absence of compound = 100%, 100 μM glutamate plus 30 μM glycine, read-out: NR2A response
Experimental: (§1) Two-electrode voltage-clamp recordings were made from Xenopus laevis oocytes expressing recombinant rat GluN1/GluN2A, GluN1/GluN2B, GluN1/GluN2C, GluN1/GluN2D, GluA1, or GluK2 receptors following injection of 5-10 ng of cRNA synthesized according to manufacturers' protocols (Ambin, mMessage, mMachine). cDNAs used were rat GluN1-1a (GenBank accession numbers U11418 and U08261; hereafter GluN1), GluN2A (D13211), GluN2B (U11419), GluN2C (M91563), GluN2D (L31611), GluA1 (X17184), GluK2 (Z11548). The current under voltage-clamp was recorded during perfusion with recording solution containing (in mM) 90 NaCl, 1.0 KCl, 0.5 BaCl2, 0.005 EDTA, and 10 HEPES at pH 7.4 (23° C.). Glass micropipettes had resistances of 0.3-1.0 MS2 and were filled with 3.0 M KCl. The membrane potential was clamped at −40 mV during the experiment. Recordings were digitized at 10 Hz and analyzed off line. 20 mM stock solutions of test compounds in 100% DMSO were made and diluted to obtain the final concentration; final DMSO content was 0.05-0.5% (vol/vol). Oocytes expressing GluK2 homomeric receptors were first treated with 10 μM concanavalin A (10 minutes). NMDA receptor responses were obtained by challenging oocytes with 100 μM glutamate plus 30 μM glycine; GluA1 and GluK2 receptors responses were recorded during application of 100 μM glutamate. We recorded the response to 5-7 concentrations of test drug co-applied with glutamate and glycine in 5 or more oocytes obtained from two different frogs. […] N is the Hill slope and maximum is the response predicted for saturating concentration of potentiator.

[2] = target: recombinant rat GluN1/GluN2C receptors (NR2C) (Rattus norvegicus (Rat), UniProt P35439+Q00961); experiment: Two-electrode voltage-clamp recordings, Xenopus laevis oocytes, NR2C; conditions: head prints IC50; method describes EC50 of potentiator
Experimental: as §1

[3] = target: recombinant rat GluN1/GluN2B receptors (NR2B) (Rattus norvegicus (Rat), UniProt P35439+Q00960); experiment: Two-electrode voltage-clamp recordings, Xenopus laevis oocytes, NR2B; conditions: current in the absence of compound = 100%, 100 μM glutamate plus 30 μM glycine, read-out: NR2B response
Experimental: as §1

[4] = target: recombinant rat GluN1/GluN2D receptors (NR2D) (Rattus norvegicus (Rat), UniProt P35439+Q62645); experiment: Two-electrode voltage-clamp recordings, Xenopus laevis oocytes, NR2D; conditions: current in the absence of compound = 100%, 100 μM glutamate plus 30 μM glycine, read-out: NR2D response
Experimental: as §1

[5] = target: recombinant rat GluN1/GluN2C receptors (NR2C) (Rattus norvegicus (Rat), UniProt Q00961); experiment: Two-electrode voltage-clamp recordings, Xenopus laevis oocytes, NR2C; conditions: at 100 uM; current in the absence of compound = 100%; 100 μM glutamate plus 30 μM glycine
Experimental: as §1

recombinant rat GluN1/GluN2D receptors (NR2D), sequence (Q62645 28-1323, other chains not shown): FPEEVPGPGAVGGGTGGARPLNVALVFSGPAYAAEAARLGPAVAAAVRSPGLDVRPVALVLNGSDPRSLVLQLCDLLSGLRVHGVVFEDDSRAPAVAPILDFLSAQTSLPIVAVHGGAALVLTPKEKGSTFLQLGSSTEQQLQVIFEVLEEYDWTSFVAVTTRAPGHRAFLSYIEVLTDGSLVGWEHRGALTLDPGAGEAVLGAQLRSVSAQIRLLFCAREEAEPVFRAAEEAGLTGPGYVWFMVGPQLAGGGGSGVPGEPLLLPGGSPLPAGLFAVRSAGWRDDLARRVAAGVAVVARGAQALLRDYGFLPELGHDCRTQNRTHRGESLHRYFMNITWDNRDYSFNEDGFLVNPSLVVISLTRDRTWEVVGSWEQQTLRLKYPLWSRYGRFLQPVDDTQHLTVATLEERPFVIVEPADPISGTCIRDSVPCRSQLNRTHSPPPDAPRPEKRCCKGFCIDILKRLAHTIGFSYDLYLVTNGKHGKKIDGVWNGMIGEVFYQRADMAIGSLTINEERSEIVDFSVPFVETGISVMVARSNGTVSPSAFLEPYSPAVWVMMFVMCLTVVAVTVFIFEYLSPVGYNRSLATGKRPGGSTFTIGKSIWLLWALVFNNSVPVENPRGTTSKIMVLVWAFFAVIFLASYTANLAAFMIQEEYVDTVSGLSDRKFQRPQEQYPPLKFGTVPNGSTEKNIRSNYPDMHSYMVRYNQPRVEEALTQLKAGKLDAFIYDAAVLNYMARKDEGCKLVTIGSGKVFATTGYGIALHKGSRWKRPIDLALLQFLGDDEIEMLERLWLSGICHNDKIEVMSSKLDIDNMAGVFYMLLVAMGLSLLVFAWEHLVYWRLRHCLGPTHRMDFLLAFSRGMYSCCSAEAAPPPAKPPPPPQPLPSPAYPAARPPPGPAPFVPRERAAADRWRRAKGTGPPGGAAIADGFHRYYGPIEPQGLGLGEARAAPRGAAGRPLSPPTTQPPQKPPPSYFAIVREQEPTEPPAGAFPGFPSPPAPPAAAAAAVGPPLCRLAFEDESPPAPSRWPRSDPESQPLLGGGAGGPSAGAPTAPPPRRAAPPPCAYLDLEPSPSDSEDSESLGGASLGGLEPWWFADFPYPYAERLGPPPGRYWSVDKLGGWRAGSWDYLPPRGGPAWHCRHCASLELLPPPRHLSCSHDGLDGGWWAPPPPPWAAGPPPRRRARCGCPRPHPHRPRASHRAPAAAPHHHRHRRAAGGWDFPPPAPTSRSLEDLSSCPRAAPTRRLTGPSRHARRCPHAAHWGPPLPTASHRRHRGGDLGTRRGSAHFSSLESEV
recombinant rat GluN1/GluN2C receptors (NR2C) (Rattus norvegicus (Rat), UniProt P35439+Q00961), sequence (Q00961 20-1237, other chains not shown): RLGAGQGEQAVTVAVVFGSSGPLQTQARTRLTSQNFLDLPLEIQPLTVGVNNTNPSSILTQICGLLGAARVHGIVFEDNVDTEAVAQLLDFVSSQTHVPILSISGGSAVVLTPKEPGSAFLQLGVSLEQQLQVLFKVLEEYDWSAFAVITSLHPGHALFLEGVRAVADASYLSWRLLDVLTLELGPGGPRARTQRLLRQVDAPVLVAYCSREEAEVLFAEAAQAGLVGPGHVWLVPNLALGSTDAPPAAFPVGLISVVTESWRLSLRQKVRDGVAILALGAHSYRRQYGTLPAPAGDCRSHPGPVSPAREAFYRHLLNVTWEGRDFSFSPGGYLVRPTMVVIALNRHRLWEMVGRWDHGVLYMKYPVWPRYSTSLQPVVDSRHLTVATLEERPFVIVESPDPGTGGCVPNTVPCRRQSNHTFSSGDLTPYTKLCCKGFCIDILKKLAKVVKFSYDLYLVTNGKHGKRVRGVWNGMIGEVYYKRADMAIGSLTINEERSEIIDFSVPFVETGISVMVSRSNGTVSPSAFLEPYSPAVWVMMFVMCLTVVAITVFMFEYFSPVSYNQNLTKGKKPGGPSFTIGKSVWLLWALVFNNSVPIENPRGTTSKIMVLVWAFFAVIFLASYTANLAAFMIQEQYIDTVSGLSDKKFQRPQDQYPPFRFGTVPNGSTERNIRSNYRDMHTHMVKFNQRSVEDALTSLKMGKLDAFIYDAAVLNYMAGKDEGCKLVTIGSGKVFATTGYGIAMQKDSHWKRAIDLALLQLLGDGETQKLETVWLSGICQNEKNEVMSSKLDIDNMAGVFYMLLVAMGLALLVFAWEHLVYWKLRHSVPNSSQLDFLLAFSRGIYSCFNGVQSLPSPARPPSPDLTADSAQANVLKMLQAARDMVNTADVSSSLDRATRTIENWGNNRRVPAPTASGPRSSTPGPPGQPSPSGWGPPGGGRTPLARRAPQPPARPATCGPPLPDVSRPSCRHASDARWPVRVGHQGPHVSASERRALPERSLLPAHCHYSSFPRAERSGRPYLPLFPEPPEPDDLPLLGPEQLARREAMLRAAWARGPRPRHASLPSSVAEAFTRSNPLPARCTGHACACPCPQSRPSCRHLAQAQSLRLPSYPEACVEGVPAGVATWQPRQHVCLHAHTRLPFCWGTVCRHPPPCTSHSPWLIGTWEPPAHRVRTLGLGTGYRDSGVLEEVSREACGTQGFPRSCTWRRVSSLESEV
recombinant rat GluN1/GluN2B receptors (NR2B), sequence (Q00960 27-1482, other chains not shown): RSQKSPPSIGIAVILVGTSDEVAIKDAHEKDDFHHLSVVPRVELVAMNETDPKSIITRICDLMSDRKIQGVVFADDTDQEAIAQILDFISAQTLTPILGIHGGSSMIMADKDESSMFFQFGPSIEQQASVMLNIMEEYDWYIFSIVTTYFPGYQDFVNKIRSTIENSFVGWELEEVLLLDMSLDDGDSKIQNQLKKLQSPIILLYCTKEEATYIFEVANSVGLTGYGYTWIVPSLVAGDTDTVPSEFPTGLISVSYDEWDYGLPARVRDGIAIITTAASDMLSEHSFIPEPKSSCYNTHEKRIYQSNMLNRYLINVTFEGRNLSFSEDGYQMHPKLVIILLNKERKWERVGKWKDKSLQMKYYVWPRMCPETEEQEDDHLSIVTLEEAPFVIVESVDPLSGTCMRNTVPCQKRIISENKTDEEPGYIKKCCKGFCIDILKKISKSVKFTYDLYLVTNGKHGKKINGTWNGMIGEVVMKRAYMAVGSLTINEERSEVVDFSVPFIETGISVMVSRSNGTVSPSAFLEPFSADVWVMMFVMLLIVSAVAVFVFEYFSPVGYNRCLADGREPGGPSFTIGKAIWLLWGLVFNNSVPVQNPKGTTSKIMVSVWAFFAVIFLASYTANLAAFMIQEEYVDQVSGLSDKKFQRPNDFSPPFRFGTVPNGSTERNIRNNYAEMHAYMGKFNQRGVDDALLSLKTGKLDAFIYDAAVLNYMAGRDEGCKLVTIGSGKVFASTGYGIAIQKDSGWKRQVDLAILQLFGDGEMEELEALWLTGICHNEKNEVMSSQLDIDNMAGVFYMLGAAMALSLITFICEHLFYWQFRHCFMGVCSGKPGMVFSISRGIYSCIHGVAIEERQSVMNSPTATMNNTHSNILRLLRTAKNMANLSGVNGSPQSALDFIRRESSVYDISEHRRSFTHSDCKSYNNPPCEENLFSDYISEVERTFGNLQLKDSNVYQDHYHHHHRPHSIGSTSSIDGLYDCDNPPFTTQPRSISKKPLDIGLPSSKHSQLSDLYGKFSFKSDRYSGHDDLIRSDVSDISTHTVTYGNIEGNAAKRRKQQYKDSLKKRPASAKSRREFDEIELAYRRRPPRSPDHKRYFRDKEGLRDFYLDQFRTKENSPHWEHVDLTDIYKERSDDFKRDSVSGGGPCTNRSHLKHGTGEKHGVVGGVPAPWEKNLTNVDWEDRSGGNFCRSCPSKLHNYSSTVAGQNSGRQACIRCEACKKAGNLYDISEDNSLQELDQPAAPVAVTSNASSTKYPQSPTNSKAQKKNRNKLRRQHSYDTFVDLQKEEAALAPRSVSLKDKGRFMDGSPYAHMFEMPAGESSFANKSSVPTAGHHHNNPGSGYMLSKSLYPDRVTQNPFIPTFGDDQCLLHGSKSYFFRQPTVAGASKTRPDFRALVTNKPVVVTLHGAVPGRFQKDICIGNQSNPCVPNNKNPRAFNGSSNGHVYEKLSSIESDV
recombinant rat GluN1/GluN2C receptors (NR2C) (Rattus norvegicus (Rat), UniProt Q00961), sequence (Q00961 20-1237, other chains not shown): as the sequence (Q00961 20-1237, other chains not shown) above

Row | activity at 100 µM [1] [%] | EC50 (potentiation) [2] [µM] | activity at 100 µM [3] [%] | activity at 100 µM [4] [%] | NR2C response [5] [% response at 100 uM] | SMILES
1 | 99 | 20 | 79 | 99 | – | COC(=O)c1ccc(C2C(C(C)=O)=C(O)C(=O)N2CCc2c[nH]c3ccccc23)c(OC)c1 (centres unmarked)
2 | 78 | 8 | 72 | 72 | – | COC(=O)c1ccc(C2C(C(=O)c3ccncc3)=C(O)C(=O)N2CCc2c[nH]c3ccccc23)cc1 (centres unmarked)
3 | 43 | 12 | 71 | 73 | – | O=C(C1=C(O)C(=O)N(CCc2c[nH]c3ccccc23)C1c1cccs1)c1cccnc1 (centres unmarked)
4 | 68 | 26 | 72 | 115 | – | COC(=O)c1ccc(C2C(C(=O)c3ccccc3Cl)=C(O)C(=O)N2CCc2c[nH]c3ccccc23)cc1 (centres unmarked)
5 | 99 | 9 | 77 | 73 | – | CCOC(=O)c1ccc(C2C(C(=O)c3ccncc3)=C(O)C(=O)N2CCc2c[nH]c3cc(C)ccc23)cc1 (centres unmarked)
6 | 91 | 4 | 66 | 64 | – | COC(=O)c1ccc(C2C(C(=O)c3cccnc3)=C(O)C(=O)N2CCc2c[nH]c3cc(C)ccc23)cc1 (centres unmarked)
7 | – | 11 | – | – | – | COC(=O)c1ccc(C2C(C(=O)c3ccncc3)=C(O)C(=O)N2CCc2cccc3ccccc23)cc1 (centres unmarked)
8 | 83 | 4 | 43 | 61 | – | COC(=O)c1ccc(C2C(C(=O)c3cccnc3)=C(O)C(=O)N2CCc2c[nH]c3cc(Cl)ccc23)cc1 (centres unmarked)
9 | 74 | 7 | 61 | 69 | – | CCOC(=O)c1ccc(C2C(C(=O)c3cccnc3)=C(O)C(=O)N2CCc2c[nH]c3cc(C)ccc23)cc1 (centres unmarked)
10 | 76 | 5 | – | – | – | COC(=O)c1ccc(C2C(C(=O)c3cccc(O)c3)=C(O)C(=O)N2CCc2c[nH]c3ccccc23)cc1 (centres unmarked)
11 | 103 | – | 94 | 95 | 97 | COC(=O)c1ccc(C2C(C(=O)c3ccncc3)=C(O)C(=O)N2CCc2ccncc2)cc1 (centres unmarked)
12 | 97 | – | 91 | 90 | 84 | COC(=O)c1ccc(C2C(C(=O)c3ccncc3)=C(O)C(=O)N2CCc2c[nH]cn2)cc1 (centres unmarked)
13 | 89 | 12 | 79 | 73 | – | CCOC(=O)c1ccc(C2C(C(C)=O)=C(O)C(=O)N2CCc2c(C)[nH]c3ccccc23)cc1 (centres unmarked)
14 | 80 | 14 | 37 | 64 | – | COC(=O)c1ccc(C2C(C(=O)c3cccnc3)=C(O)C(=O)N2CCc2c[nH]c3cc(F)ccc23)cc1 (centres unmarked)

Row | SMILES | activity at 100 µM [1] [%] | EC50 (potentiation) [2] [µM] | activity at 100 µM [3] [%] | activity at 100 µM [4] [%] | NR2C response [5] [% response at 100 uM]
15 | CCOC(=O)c1ccc(C2C(C(C)=O)=C(O)C(=O)N2CCc2c[nH]c3ccccc23)cc1 (centres unmarked) | 96 | 15 | 75 | 79 | –
16 | COC(=O)c1ccc(C2C(C(C)=O)=C(O)C(=O)N2CCc2c[nH]c3ccccc23)c(O)c1 (centres unmarked) | 102 | 15 | 77 | 79 | –
